Data on 29 molecules can be found in ChEMBL document CHEMBL3351326, “Discovery of substituted 6-pheny-3H-pyridazin-3-one derivatives as novel c-Met kinase inhibitors” (Bioorg Med Chem Lett, 2014).

Where only a bound is given, the exact number is not on record here.

A short description of assay [1]: Cytotoxicity against human NCI-H3122 cells after 72 hrs by WST8 assay. Particulars: NCI-H3122, 72 h. Background: Formazan colour is commonly taken as a measure of viable cells.
The nature of assay [2]: Cytotoxicity against human U87MG cells after 72 hrs by WST8 assay. Format: functional, cell-based, U-87MG ATCC. To be noted: U-87 MG.
Assay [3] concerns NCI-H1993. The assay is described as follows: Cytotoxicity against human NCI-H1993 cells after 72 hrs by WST8 assay. To be noted: NCI-H1993, 72 h.
The nature of assay [4]: cells. Particulars: Homo sapiens, Hs746T, 72 h.
Description: Cytotoxicity against human Hs 746T cells after 72 hrs by WST8 assay

In the case of `N#Cc1cccc(-c2ccc(=O)n(C[C@@H]3CN(c4ncc(-c5ccnc(F)c5)cn4)CCO3)n2)c1`, the half-maximal inhibitory concentration (IC50) (commonly the concentration needed to halve the response being measured) was over 10 µM in assay [1], over 10 µM in assay [2], 7.4 µM in assay [3] and 7.15 µM in assay [4].

Regarding `O=c1ccc(-c2ccc(F)cc2)nn1C[C@@H]1CN(c2ncc(-c3cnn(C4CCN(CCO)CC4)c3)cn2)CCO1`, the IC50 in assay [1] was over 10 µM; in assay [2], over 10 µM; in assay [3], 3.8 µM; in assay [4], 0.28 µM.

On to `N#Cc1cccc(-c2ccc(=O)n(C[C@@H]3CN(c4ncc(-c5cnn(CCOC6CCCCO6)c5)cn4)CCO3)n2)c1` (some centres undefined), for which the IC50 was over 10 µM in assay [1], over 10 µM in assay [2], 2.6 µM in assay [3] and 0.46 µM in assay [4].

On to `N#Cc1cccc(-c2ccc(=O)n(C[C@@H]3CN(c4ncc(C5=CCN(CCO)CC5)cn4)CCO3)n2)c1`, for which the IC50 in assay [1] was over 10 µM; in assay [2], over 10 µM; in assay [3] it was 2.5 µM; in assay [4] it was 0.21 µM.

`N#Cc1cccc(-c2ccc(=O)n(C[C@@H]3CN(c4ncc(-c5ccc(OCCN6CCOCC6)c(Cl)c5)cn4)CCO3)n2)c1`: the IC50 in assay [1] was over 10 µM; in assay [2], 1.4 µM; in assay [3], 1.2 µM; in assay [4], 1.42 µM.

Consider `N#Cc1cccc(-c2ccc(=O)n(C[C@@H]3CN(c4ncc(-c5cnn(C6CCN(C7CCOCC7)CC6)c5)cn4)CCO3)n2)c1`, for which the IC50 was over 10 µM in assay [1], over 10 µM in assay [2], 0.23 µM in assay [3] and 0.013 µM in assay [4].

With `CN1CCC(n2cc(-c3cnc(N4CCO[C@H](Cn5nc(-c6cccc(F)c6)ccc5=O)C4)nc3)cn2)CC1`, the IC50 in assay [1] came to 3.3 µM; in assay [2], 3.4 µM; in assay [3], 3.2 µM; in assay [4] it was 0.46 µM.

For `CN1CCN(c2ccc(-c3cnc(N4CCO[C@H](Cn5nc(-c6cccc(C#N)c6)ccc5=O)C4)nc3)cn2)CC1`, the 50% inhibitory concentration (IC50) in assay [1] was 1.4 µM; in assay [2], 1.6 µM; in assay [3] it was 1.3 µM; in assay [4] it was 0.65 µM.

As to `O=c1ccc(-c2cccc(F)c2)nn1C[C@@H]1CN(c2ncc(-c3cnn(C4CCN(CCO)CC4)c3)cn2)CCO1`, the IC50 is 3.3 µM in assay [1], 3.4 µM in assay [2], 3.2 µM in assay [3] and 0.46 µM in assay [4].

As for `Cn1cc(-c2cnc(N3CCO[C@H](Cn4nc(-c5ccc(OCc6ccccc6)cc5)ccc4=O)C3)nc2)cn1`, the 50% inhibitory concentration (IC50) in assay [1] is over 10 µM; in assay [2], 7.6 µM; in assay [3], 4.1 µM; in assay [4], 3.02 µM.

For `O=c1ccc(-c2cccc(C(F)(F)F)c2)nn1C[C@@H]1CN(c2ncc(-c3cnn(C4CCNCC4)c3)cn2)CCO1`, the IC50 in assay [1] was 1.4 µM; in assay [2] it was 2.5 µM; in assay [3], 1.3 µM; in assay [4], 0.084 µM.

Take `CN1CC=C(c2cnc(N3CCO[C@H](Cn4nc(-c5cccc(C#N)c5)ccc4=O)C3)nc2)CC1`: the IC50 is over 10 µM in assay [1], over 10 µM in assay [2], 4.1 µM in assay [3] and 1.2 µM in assay [4].

In the case of `O=c1ccc(-c2cccc(Cl)c2)nn1C[C@@H]1CN(c2ncc(-c3cnn(C4CCNCC4)c3)cn2)CCO1`, the IC50 in assay [1] was over 10 µM; in assay [2] it was 9.9 µM; in assay [3], 3.4 µM; in assay [4], 0.75 µM.

Consider `O=c1ccc(-c2cc(F)cc(F)c2)nn1C[C@@H]1CN(c2ncc(-c3cnn(C4CCNCC4)c3)cn2)CCO1`, for which the IC50 in assay [1] was determined as 1.9 µM; in assay [2] it was 3.2 µM; in assay [3], 1.6 µM; in assay [4] it was 0.45 µM.

Turning to `O=c1ccc(-c2cc(F)c(F)c(F)c2)nn1C[C@@H]1CN(c2ncc(-c3cnn(C4CCN(CCO)CC4)c3)cn2)CCO1`, the IC50 in assay [1] was over 10 µM; in assay [2] it was 4.07 µM; in assay [4], 0.19 µM.

For `N#Cc1cccc(-c2ccc(=O)n(C[C@@H]3CN(c4ncc(-c5ccc(OCCN6CCOCC6)cc5)cn4)CCO3)n2)c1`, the concentration for half-maximal inhibition (IC50) in assay [1] is over 10 µM; in assay [2], 3.4 µM; in assay [3] it was 1.8 µM; in assay [4] it was 0.41 µM.

Regarding `N#Cc1cccc(-c2ccc(=O)n(C[C@@H]3CN(c4ncc(-c5cnn(C6CCNCC6)c5)cn4)CCO3)n2)c1`, the IC50 is over 10 µM in assay [1], over 10 µM in assay [2], 0.11 µM in assay [3] and 0.0012 µM in assay [4].

Consider `CN1CCC(n2cc(-c3cnc(N4CCO[C@H](Cn5nc(-c6ccc(F)c(F)c6)ccc5=O)C4)nc3)cn2)CC1`, for which the 50% inhibitory concentration (IC50) in assay [1] was over 10 µM; in assay [2], over 10 µM; in assay [3], 5.7 µM; in assay [4] it was 0.94 µM.

In the case of `N#Cc1cccc(-c2ccc(=O)n(C[C@@H]3CN(c4ncc(C5=CCNCC5)cn4)CCO3)n2)c1`, the 50% inhibitory concentration (IC50) in assay [1] is over 10 µM; in assay [2] it was 9.7 µM; in assay [3], 3.8 µM; in assay [4], 0.74 µM.

On to `CN1CCC(n2cc(-c3cnc(N4CCO[C@H](Cn5nc(-c6ccc(F)c(Cl)c6)ccc5=O)C4)nc3)cn2)CC1`, for which the half-inhibitory concentration (IC50) turned out to be 1.4 µM in assay [1], 1.5 µM in assay [2], 1.2 µM in assay [3] and 0.014 µM in assay [4].

Consider `N#Cc1cccc(-c2ccc(=O)n(C[C@@H]3CN(c4ncc(-c5ccc(OCCN6CCOCC6)nc5)cn4)CCO3)n2)c1`, for which the results for the IC50 in assay [1], in assay [3] and in assay [4] were 9.8 µM, 3.7 µM and 0.74 µM, respectively.

In the case of `CN1CCC(COc2cnc(N3CCO[C@H](Cn4nc(-c5cccc(C#N)c5)ccc4=O)C3)nc2)CC1`, the IC50 in assay [1] was over 10 µM; in assay [2] it was over 10 µM; in assay [3], 2.4 µM; in assay [4] it was 0.43 µM.

Take `O=c1ccc(-c2cccc(F)c2)nn1C[C@@H]1CN(c2ncc(-c3cnn(C4CCNCC4)c3)cn2)CCO1`: the IC50 in assay [1] is 7.5 µM; in assay [2], 4.9 µM; in assay [3], 3.5 µM; in assay [4], 0.22 µM.

Take `O=c1ccc(-c2cc(F)c(F)c(F)c2)nn1C[C@@H]1CN(c2ncc(-c3cnn(C4CCNCC4)c3)cn2)CCO1`: the IC50 was determined as 1.5 µM in assay [1], 1.5 µM in assay [2], 1.2 µM in assay [3] and 0.23 µM in assay [4].

For the molecule `Cn1cc(-c2cnc(N3CCO[C@H](Cn4nc(-c5cccc(C#N)c5)ccc4=O)C3)nc2)cn1`, the concentration for half-maximal inhibition (IC50) was over 1 µM in assay [1], over 1 µM in assay [2], 0.01 µM in assay [3] and 0.0007 µM in assay [4].

For the molecule `N#Cc1cccc(-c2ccc(=O)n(C[C@@H]3CN(c4ncc(-c5cnn(CC6CCN(CCO)CC6)c5)cn4)CCO3)n2)c1`, the IC50 is over 10 µM in assay [1], over 10 µM in assay [2], 2.1 µM in assay [3] and 0.0034 µM in assay [4].

Take `N#Cc1cccc(-c2ccc(=O)n(C[C@@H]3CN(c4ncc(-c5cnn(CCO)c5)cn4)CCO3)n2)c1`: the IC50 in assay [1] was over 10 µM; in assay [2], over 10 µM; in assay [3], 1.5 µM; in assay [4] it was 0.18 µM.

On to `O=c1ccc(-c2ccc(F)c(Cl)c2)nn1C[C@@H]1CN(c2ncc(-c3cnn(C4CCNCC4)c3)cn2)CCO1`, for which the IC50 was 1.7 µM in assay [1], 1.2 µM in assay [2], 0.79 µM in assay [3] and 0.071 µM in assay [4].

As to `CN1CCC(n2cc(-c3cnc(N4CCO[C@H](Cn5nc(-c6cc(F)c(F)c(F)c6)ccc5=O)C4)nc3)cn2)CC1`, the IC50 in assay [1] amounted to 7.6 µM; in assay [2], 9.1 µM; in assay [3] it was 3.6 µM; in assay [4], 0.48 µM.
